Laboratory results: patent publication US11667649B2, “Heteroaromatic macrocyclic ether chemotherapeutic agents” (Nuvalent, Inc., priority 2020, dated 2023)

Tested on: TPM3-NTRK1-wt IC50 / primary target (e.g. CD74-ROS1-wt) IC50, Ba/F3 cells
Test: Cell assay TRKA selectivity (TRKA potency divided by primary target potency)
Format: cell-based
Conditions: for TPM3-NTRK1-wt/CD74-ROS1-G2032R: TRKA selectivity ratio: TPM3-NTRK1-wt IC50 / CD74-ROS1-G2032R IC50, Ba/F3 cells; for TPM3-NTRK1-wt/CD74-ROS1-wt: TRKA selectivity ratio: TPM3-NTRK1-wt IC50 / CD74-ROS1-wt IC50, Ba/F3 cells; for TPM3-NTRK1-wt/EML4-ALK-L1196M-G1202R: TRKA selectivity ratio: TPM3-NTRK1-wt IC50 / EML4-ALK-L1196M-G1202R IC50, Ba/F3 cells; for TPM3-NTRK1-wt/EML4-ALK-wt: TRKA selectivity ratio: TPM3-NTRK1-wt IC50 / EML4-ALK-wt IC50, Ba/F3 cells
Source text: Genes encoding CD74-ROS1 wild-type (wt), CD74-ROS1 G2032R, CD74-ROS1 S1986F, CD74-ROS1 L2026M, CD74-ROS1 D2033N, EML4-ALK wt (variant 1), EML4-ALK G1202R (variant 1), EML4-ALK L1196M/G1202R (variant 1), EML4-ALK G1202R/G1269A (variant 1), EML4-ALK G1202R/L1198F (variant 1), and TPM3-TRKA were synthesized at GeneRay, cloned into the retroviral construct pMSCV-puro (Biovector), and packaged into retroviral particles. The virus was used to infect Ba/F3 cells (RIKEN) at multiplicity of infection=1 for 1 day. Infected cells were rescued in media (RPMI-1640 with 10% fetal bovine serum and 1% streptomycin and penicillin) supplemented with mouse IL-3 (10 ng/mL) for 2 days, and stable cell lines were selected by IL-3 withdrawal and puromycin (0.8 μg/mL) for 7 days. Monoclones were selected by single-cell dilution in IL-3-free medium containing puromycin (0.8 μg/mL). Transformation of desired genes was confirmed by Sanger sequencing and western blot using the following antibodies: ROS1 (CST #3287), ALK (CST #3633), and pan-TRK (Abcam #76291).
Stable cells were plated at 1,000 cells/well (40 μL) in a 384-well plate for 1 day. Test compounds (40 nL) were then added in a 3-fold dilution series using the TECAN EVO200 liquid handler and incubated for 72 hours. Plates were equilibrated at room temperature for 15 minutes followed by addition of 40 μL CellTiter-Glo reagent (Promega). Luminescence was measured on a plate reader. Half-maximal inhibitory concentration (IC50) was calculated from percent inhibition and inhibitor concentration using four-parameter logistic regression. […] Exemplary data is given in Table 4 (nd is not determined).
TRKA selectivity was calculated by dividing a compound's TRKA potency by its primary target potency (e.g. TPM3-NTRK1-wt IC50/CD74-ROS1-wt IC50). Compound selectivity can be interpreted by binning ratio values: bin A for very high selectivity, ratio>30-fold; bin B for high selectivity, ratio>10-fold; bin C for moderate selectivity, ratio≥1; and bin D for low selectivity, ratio<1. […] (nd=not determined).

SMILES	TPM3-NTRK1-wt/CD74-ROS1-G2032R	TPM3-NTRK1-wt/CD74-ROS1-wt	TPM3-NTRK1-wt/EML4-ALK-L1196M-G1202R	TPM3-NTRK1-wt/EML4-ALK-wt
CCn1nnc2c1-c1cnc(N)c(c1)O[C@H](C)c1cc(F)ccc1-c1nn(C)cc1C2 [Example 20, (19R)-3-ethyl-16-fluoro-10,19-dimethyl-20-oxa-3,4,5,10,11,23-hexaazapentacyclo[19.3.1.0^2,^6.0^8,^12.0^13,^18]pentacosa-1(24),2(6),4,8,11,13,15,17,21(25),22-decaen-22-amine]	A (bin A for very high selectivity, ratio>30-fold)	A (bin A for very high selectivity, ratio>30-fold)	B (bin B for high selectivity, ratio>10-fold)	A (bin A for very high selectivity, ratio>30-fold)
C[C@H]1Oc2cc(cnc2N)-c2c(cnn2CC2CC2)Cc2cccnc2-c2ccc(F)cc21 [Example 137, (20R)-3-(cyclopropylmethyl)-17-fluoro-20-methyl-21-oxa-3,4,12,24-tetraazapentacyclo[20.3.1.0^2,^6.0^8,^13.0^14,^19]hexacosa-1(25),2(6),4,8(13),9,11,14,16,18,22(26),23-undecaen-23-amine]	A (bin A for very high selectivity, ratio>30-fold)	A (bin A for very high selectivity, ratio>30-fold)	A (bin A for very high selectivity, ratio>30-fold)	A (bin A for very high selectivity, ratio>30-fold)
CCn1ncc2c1-c1ccc(F)cc1[C@@H](C)Oc1cc(cnc1N)-c1c(cnn1C)C2 [Example 4, (19R)-11-ethyl-16-fluoro-3,19-dimethyl-20-oxa-3,4,10,11,23-pentaazapentacyclo[19.3.1.0^2,^6.0^8,^12.0^13,^18]pentacosa-1(24),2(6),4,8(12),9,13,15,17,21(25),22-decaen-22-amine]	B (bin B for high selectivity, ratio>10-fold)	A (bin A for very high selectivity, ratio>30-fold)	D (bin D for low selectivity, ratio<1)	C (bin C for moderate selectivity, ratio≥1)
C[C@H]1Oc2cc(cnc2N)-c2c(cnn2CC2CC2)Cc2cn(C)nc2-c2ccc(F)cc21 [Example 121, (19R)-3-(cyclopropylmethyl)-16-fluoro-10,19-dimethyl-20-oxa-3,4,10,11,23-pentaazapentacyclo[19.3.1.0^2,^6.0^8,^12.0^13,^18]pentacosa-1(24),2(6),4,8,11,13,15,17,21(25),22-decaen-22-amine]	A (bin A for very high selectivity, ratio>30-fold)	A (bin A for very high selectivity, ratio>30-fold)	A (bin A for very high selectivity, ratio>30-fold)	A (bin A for very high selectivity, ratio>30-fold)
C[C@H]1Oc2cc(cnc2N)-c2c(C#N)cnn2Cc2ccnn2-c2ccc(F)cc21 [Example 58, (19R)-22-amino-16-fluoro-19-methyl-20-oxa-4,6,11,12,23-pentaazapentacyclo[19.3.1.0^2,^6.0^8,^12.0^13,^18]pentacosa-1(24),2,4,8,10,13,15,17,21(25),22-decaene-3-carbonitrile]	A (bin A for very high selectivity, ratio>30-fold)	A (bin A for very high selectivity, ratio>30-fold)	B (bin B for high selectivity, ratio>10-fold)	A (bin A for very high selectivity, ratio>30-fold)
CCn1ncc2c1-c1cnc(N)c(c1)O[C@H](C)c1cc(F)ccc1-n1nc(C(F)(F)F)cc1C2 [Example 52, (19R)-3-ethyl-16-fluoro-19-methyl-10-(trifluoromethyl)-20-oxa-3,4,11,12,23-pentaazapentacyclo[19.3.1.0^2,^6.0^8,^12.0^13,^18]pentacosa-1(24),2(6),4,8,10,13,15,17,21(25),22-decaen-22-amine]	A (bin A for very high selectivity, ratio>30-fold)	A (bin A for very high selectivity, ratio>30-fold)	C (bin C for moderate selectivity, ratio≥1)	B (bin B for high selectivity, ratio>10-fold)
Cc1nc2c(s1)Cn1ncc(C(F)F)c1-c1cnc(N)c(c1)O[C@H](C)c1cc(F)ccc1-2 [Example 68, (19R)-3-(difluoromethyl)-16-fluoro-10,19-dimethyl-20-oxa-9-thia-5,6,11,23-tetraazapentacyclo[19.3.1.0^2,^6.0^8,^12.0^13,^18]pentacosa-1(24),2,4,8(12),10,13,15,17,21(25),22-decaen-22-amine]	B (bin B for high selectivity, ratio>10-fold)	A (bin A for very high selectivity, ratio>30-fold)	C (bin C for moderate selectivity, ratio≥1)	B (bin B for high selectivity, ratio>10-fold)
C[C@H]1Oc2cc(cnc2N)-c2c(c(Cl)nn2CC(F)F)Cc2cn(C)nc2-c2ccc(F)cc21 [Example 83, (19R)-5-chloro-3-(2,2-difluoroethyl)-16-fluoro-10,19-dimethyl-20-oxa-3,4,10,11,23-pentaazapentacyclo[19.3.1.0^2,^6.0^8,^12.0^13,^18]pentacosa-1(24),2(6),4,8,11,13,15,17,21(25),22-decaen-22-amine]	A (bin A for very high selectivity, ratio>30-fold)	A (bin A for very high selectivity, ratio>30-fold)	A (bin A for very high selectivity, ratio>30-fold)	A (bin A for very high selectivity, ratio>30-fold)
C[C@H]1Oc2cc(cnc2N)-c2c(nnn2CC2CC2)Cc2cc(C(F)(F)F)nn2-c2ccc(F)cc21 [Example 128, (19R)-3-(cyclopropylmethyl)-16-fluoro-19-methyl-10-(trifluoromethyl)-20-oxa-3,4,5,11,12,23-hexaazapentacyclo[19.3.1.0^2,^6.0^8,^12.0^13,^18]pentacosa-1(24),2(6),4,8,10,13,15,17,21(25),22-decaen-22-amine]	A (bin A for very high selectivity, ratio>30-fold)	A (bin A for very high selectivity, ratio>30-fold)	C (bin C for moderate selectivity, ratio≥1)	B (bin B for high selectivity, ratio>10-fold)
Cc1nn(CC2CC2)c2c1Cc1cn(C)nc1-c1ccc(F)cc1[C@@H](C)Oc1cc-2cnc1N [Example 53, (19R)-3-(cyclopropylmethyl)-16-fluoro-5,10,19-trimethyl-20-oxa-3,4,10,11,23-pentaazapentacyclo[19.3.1.0^2,^6.0^8,^12.0^13,^18]pentacosa-1(24),2(6),4,8,11,13,15,17,21(25),22-decaen-22-amine]	A (bin A for very high selectivity, ratio>30-fold)	A (bin A for very high selectivity, ratio>30-fold)	A (bin A for very high selectivity, ratio>30-fold)	A (bin A for very high selectivity, ratio>30-fold)
Cc1nn(CC2CC2)c2c1Cc1cn(C)nc1-c1ccc(F)cc1COc1cc-2cnc1N [Example 127, 3-(cyclopropylmethyl)-16-fluoro-5,10-dimethyl-20-oxa-3,4,10,11,23-pentaazapentacyclo[19.3.1.0^2,^6.0^8,^12.0^13,^18]pentacosa-1(24),2(6),4,8,11,13,15,17,21(25),22-decaen-22-amine]	A (bin A for very high selectivity, ratio>30-fold)	A (bin A for very high selectivity, ratio>30-fold)	A (bin A for very high selectivity, ratio>30-fold)	A (bin A for very high selectivity, ratio>30-fold)
CCn1ncc2c1-c1ccc(F)cc1C(C)Oc1nc(cnc1N)-c1c(cnn1C)C2 (stereo not drawn) [Example 165, 11-ethyl-16-fluoro-3,19-dimethyl-20-oxa-3,4,10,11,23,25-hexaazapentacyclo[19.3.1.0^2,^6.0^8,^12.0^13,^18]pentacosa-1(24),2(6),4,8(12),9,13,15,17,21(25),22-decaen-22-amine]	C (bin C for moderate selectivity, ratio≥1)	B (bin B for high selectivity, ratio>10-fold)	D (bin D for low selectivity, ratio<1)	C (bin C for moderate selectivity, ratio≥1)
